How the values were obtained:
Format in all cases: physicochemical
[1] = Magnetic susceptibility by the Evans method (1H NMR shift of residual CDCl3 proton); conditions: solution in CDCl3; for χmass: mass susceptibility; for χmol: molar susceptibility, χmol = MW*χmass
Source text: For the prepared molecules of structure (I) in table 2 below, the paramagnetic properties have been evaluated by the Evans method [D.F. Evans, J. Chem. Soc. 2003 (1959)]. This is based on nuclear magnetic measurements (NMR), and relies on the fact that the chemical shift (position) of the ^1H NMR signals of a molecule depend on the bulk susceptibility of the medium. In particular, the resonance line of the residual proton of CDCl3 (i.e. the NMR solvent) was used as a reference, by comparing its chemical shift for the pure CDCl3 and for a solution containing the molecules of structure (I).
As expected the mass susceptibility of the different complexes (molecules of structure (I)) vary depending on mass ratio between the paramagnetic ion (e.g. Ho^3+) and the organic DTPA-ligand (thus, it is smaller for the bigger ligands). […] Magnetism and magnetic materials. Cambridge University Press, 2010]

[2] = Verdet coefficient measurement (magneto-optic, Faraday effect); conditions: 1 M aqueous solution (control)
Experimental: The composition is prepared according to example 5.1 but using isofol 12 to obtain a weight fraction of 23 % w/w of isofol 12, where Tb^3+ is used as the paramagnetic ion in structure (I). The Verdet coefficient was determined to be 17.1 rad T^-1 m^-1 at 410 nm wavelength, and 8.0 rad T^-1 m^-1 at 600 nm. As a control a 1 M TbCl3 aqueous solution was measured using the same method resulting in a Verdet coefficient of 14.1 rad T^-1 m^-1 at 410 nm wavelength, and 4.9 rad T^-1 m^-1 at 600 nm in agreement with literature.

[3] = Preparation of paramagnetic oil with paraffin (mineral) oil; conditions: typically 10-30 wt%, as co-component
Experimental: The complex 3 (molecules of structure (I)) is dissolved in the minimum amount of dichloromethane, so to have a homogeneous solution, after that a fatty alcohol (e.g. isofol® 12) is added (typically 10-40 wt%), and the resultant mixture rotary evaporated under high vacuum to completely eliminate the volatile dichloromethane, resulting in the target homogeneous transparent paramagnetic oil.
The composition is prepared according to example 5.1 but using paraffin (mineral) oil (typically 10-30 wt%) as co-component instead of the fatty alcohol.
This method is particularly suitable when using complexes with long chains (preferably more than 8 carbon atoms).

Q: Which χmass [1] does the source give for CC(=O)[O-].CC(=O)[O-].CC(=O)[O-].O.[Ho+3] [Ho(AcO)3 *nH2O, reference compound] here?
A: The χmass was 11.0 (cm^3 g^-1) /10-5.

Q: What about the χmol [1] of the same molecule?
A: The χmol was 0.037 cm^3 mol^-1.

Q: With [Cl][Tb]([Cl])[Cl] [TbCl3] as the molecule, how does the Verdet coefficient ([2]; 410 nm wavelength) read?
A: Its Verdet coefficient is 14.1 rad T^-1 m^-1.

Q: And the Verdet coefficient ([2]; 600 nm)?
A: Its Verdet coefficient is 4.9 rad T^-1 m^-1.

Q: With Ho-DTPA-(1-octadecanol)2 as the molecule, how does the “appearance of composition with mineral oil” value [3] read?
A: The value was “homogeneous transparent fluid reacting to magnetic fields”.

Q: Which results are given for Ho-DTPA-(2-butyl-1-octanol)2?
A: χmass [1]: 4.98 (cm^3 g^-1) /10-5; χmol [1]: 0.0350 cm^3 mol^-1

Q: For Ho-DTPA-(2-octyl-1-dodecanol)2, which χmass [1] is on record?
A: Its χmass is 3.72 (cm^3 g^-1) /10-5.

Q: What about the χmol [1] of the same molecule?
A: Its χmol is 0.0415 cm^3 mol^-1.

Q: For Ho-DTPA-(3,7-dimethy-1-octanol)2, which χmass [1] is on record?
A: Its χmass is 5.05 (cm^3 g^-1) /10-5.

Q: And the χmol [1]?
A: Its χmol is 0.0422 cm^3 mol^-1.

Q: For Ho-DTPA-(hexanol)2, which χmass [1] is on record?
A: The χmass was 6.04 (cm^3 g^-1) /10-5.

Q: And the χmol [1]?
A: The χmol was 0.0437 cm^3 mol^-1.

Reference: patent EP3514141A1, “MAGNETIC MOLECULES” (Centre National de la Recherche Scientifique, priority 2018, dated 2019)
